Results published in patent US7402548B2, “Benzoxazole compounds, process for producing the same and herbicides” (Kyoyu Agri Co., Ltd., priority 2000, dated 2008).

Columns and labels:
barnyard grass [1] = assay: Herbicidal test for paddy field; assay type: in vivo, Eschinochloa crusgalli; conditions: 500 g/ha, dropwise addition to paddy water at 1.5 leaf stage of barnyard grass; glass house 25° C., 3 weeks; rank 0-5 vs non-treated district
Description: (§1) Wagner pots, each having an area of 1/5000 are, were packed with Ube soil (alluvial soil) and planted with seeds or tubers of young rice plant, barnyard grass, bulrush, Cyperus serotinus Rottb., arrowhead and monochoria. Then, the pots were filled with water to a depth of 3 cm.
(§2) Each wettable powder of the desired Compounds (I) shown in Tables 1 to 21, 24, 25, 28 and 29 prepared in accordance with Example 2 was diluted with water containing a surfactant (0.05%) and subjected to dropwise addition treatment by using pipet so that an effective concentration of the compound (I) in each herbicide became 500 g/ha at 1.5 leaf stage of barnyard grass.
(§3) These plants were controlled in a glass house at an average temperature of 25° C. for 3 weeks, and then herbicidal effects thereof were investigated.
(§4) The herbicidal effects are evaluated according to the following 6 ranks as compared with non-treated district. (0: normal development, 1: Less damaged, 2: Slightly damaged, 3: Moderately damaged, 4: Severely damaged, 5: All killed). Incidentally, “-” in the column means not investigated.

bulrush = assay: Herbicidal test for paddy field; assay type: in vivo, Scrips juncoides; conditions: 500 g/ha, dropwise addition to paddy water at 1.5 leaf stage of barnyard grass; glass house 25° C., 3 weeks; rank 0-5 vs non-treated district
Description: as §1, §2, §3, §4

Cyperus serotinus Rottb. = assay: Herbicidal test for paddy field; assay type: in vivo; conditions: 500 g/ha, dropwise addition to paddy water at 1.5 leaf stage of barnyard grass; glass house 25° C., 3 weeks; rank 0-5 vs non-treated district
Description: as §1, §2, §3, §4

corn [2] = assay: Soil treatment test for upland field; assay type: in vivo; parameters: key: 0 = normal development, 5 = all killed; conditions: 500 g/ha, 3 weeks, glass house 25° C.
Summary of the method: (§5)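 Using a pre-emergence soil application at 500 g/ha, treated pots were held 3 weeks in a glass house averaging 25° C. Injury was graded on a 0–5 scale against non-treated pots; "-" marks entries not investigated.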

solgum [3] = assay: Soil treatment test for upland field; assay type: in vivo; parameters: key: 0 = normal development, 5 = all killed; conditions: 500 g/ha, 3 weeks, glass house 25° C.
Summary of the method: as §5

soybean [4] = assay: Soil treatment test for upland field; assay type: in vivo; parameters: key: 0 = normal development, 5 = all killed; conditions: 500 g/ha, 3 weeks, glass house 25° C.
Summary of the method: as §5

sugar beat [5] = assay: Soil treatment test for upland field; assay type: in vivo; parameters: key: 0 = normal development, 5 = all killed; conditions: 500 g/ha, 3 weeks, glass house 25° C.
Summary of the method: as §5

wheat [6] = assay: Soil treatment test for upland field; assay type: in vivo; parameters: key: 0 = normal development, 5 = all killed; conditions: 500 g/ha, 3 weeks, glass house 25° C.
Summary of the method: as §5

Large crabgrass [7] = assay: Soil treatment test for upland field; assay type: in vivo, Digitaria adscendens; parameters: key: 0 = normal development, 5 = all killed; conditions: 500 g/ha, 3 weeks, glass house 25° C.
Summary of the method: as §5

barnyard grass [8] = assay: Soil treatment test for upland field; assay type: in vivo, Eschinochloa crusgalli; parameters: key: 0 = normal development, 5 = all killed; conditions: 500 g/ha, 3 weeks, glass house 25° C.
Summary of the method: as §5

green foxtail [9] = assay: Soil treatment test for upland field; assay type: in vivo, Setaria viridis; parameters: key: 0 = normal development, 5 = all killed; conditions: 500 g/ha, 3 weeks, glass house 25° C.
Summary of the method: as §5

blackgrass [10] = assay: Soil treatment test for upland field; assay type: in vivo, Alopecurus aegualis; parameters: key: 0 = normal development, 5 = all killed; conditions: 500 g/ha, 3 weeks, glass house 25° C.
Summary of the method: as §5

annual bluegrass [11] = assay: Soil treatment test for upland field; assay type: in vivo, Poa annua; parameters: key: 0 = normal development, 5 = all killed; conditions: 500 g/ha, 3 weeks, glass house 25° C.
Summary of the method: as §5

common lambsquarters [12] = assay: Soil treatment test for upland field; assay type: in vivo, Chenopodium album; parameters: key: 0 = normal development, 5 = all killed; conditions: 500 g/ha, 3 weeks, glass house 25° C.
Summary of the method: as §5

livid amaranth [13] = assay: Soil treatment test for upland field; assay type: in vivo, Amaranthus lividus; parameters: key: 0 = normal development, 5 = all killed; conditions: 500 g/ha, 3 weeks, glass house 25° C.
Summary of the method: as §5

velvetleaf [14] = assay: Soil treatment test for upland field; assay type: in vivo, Abutilon theophrasti; parameters: key: 0 = normal development, 5 = all killed; conditions: 500 g/ha, 3 weeks, glass house 25° C.
Summary of the method: as §5

morning glory [15] = assay: Soil treatment test for upland field; assay type: in vivo, Ipomoea spps.; parameters: key: 0 = normal development, 5 = all killed; conditions: 500 g/ha, 3 weeks, glass house 25° C.
Summary of the method: as §5

corn [16] = assay: Foliar spread test for upland field; assay type: in vivo; parameters: key: 0 = normal development, 5 = all killed (6 ranks vs. untreated); conditions: foliar spray, 500 ppm, 3 weeks, glass house 25° C.
Summary of the method: (§6)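 Seeds were sown in volcanic ash soil in Wagner pots and grown about 2 weeks in a glass house at an average 25° C. Wettable-powder formulations diluted to 500 ppm in water with 0.5% surfactant were sprayed uniformly over the plants. After 3 further weeks at 25° C, damage was scored 0 (normal) to 5 (all killed) against untreated plants.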

cotton = assay: Foliar spread test for upland field; assay type: in vivo; parameters: key: 0 = normal development, 5 = all killed (6 ranks vs. untreated); conditions: foliar spray, 500 ppm, 3 weeks, glass house 25° C.
Summary of the method: as §6

solgum [17] = assay: Foliar spread test for upland field; assay type: in vivo; parameters: key: 0 = normal development, 5 = all killed (6 ranks vs. untreated); conditions: foliar spray, 500 ppm, 3 weeks, glass house 25° C.
Summary of the method: as §6

soybean [18] = assay: Foliar spread test for upland field; assay type: in vivo; parameters: key: 0 = normal development, 5 = all killed (6 ranks vs. untreated); conditions: foliar spray, 500 ppm, 3 weeks, glass house 25° C.
Summary of the method: as §6

sugar beat [19] = assay: Foliar spread test for upland field; assay type: in vivo; parameters: key: 0 = normal development, 5 = all killed (6 ranks vs. untreated); conditions: foliar spray, 500 ppm, 3 weeks, glass house 25° C.
Summary of the method: as §6

wheat [20] = assay: Foliar spread test for upland field; assay type: in vivo; parameters: key: 0 = normal development, 5 = all killed (6 ranks vs. untreated); conditions: foliar spray, 500 ppm, 3 weeks, glass house 25° C.
Summary of the method: as §6

Large crabgrass [21] = assay: Foliar spread test for upland field; assay type: in vivo, Digitaria adscendens; parameters: key: 0 = normal development, 5 = all killed (6 ranks vs. untreated); conditions: foliar spray, 500 ppm, 3 weeks, glass house 25° C.
Summary of the method: as §6

barnyardgrjass = assay: Foliar spread test for upland field; assay type: in vivo, Eschinochloa crusgalli; parameters: key: 0 = normal development, 5 = all killed (6 ranks vs. untreated); conditions: foliar spray, 500 ppm, 3 weeks, glass house 25° C.
Summary of the method: as §6

green foxtail [22] = assay: Foliar spread test for upland field; assay type: in vivo, Setaria viridis; parameters: key: 0 = normal development, 5 = all killed (6 ranks vs. untreated); conditions: foliar spray, 500 ppm, 3 weeks, glass house 25° C.
Summary of the method: as §6

blackgrass [23] = assay: Foliar spread test for upland field; assay type: in vivo, Alopecurus aegualis; parameters: key: 0 = normal development, 5 = all killed (6 ranks vs. untreated); conditions: foliar spray, 500 ppm, 3 weeks, glass house 25° C.
Summary of the method: as §6

annual bluegrass [24] = assay: Foliar spread test for upland field; assay type: in vivo, Poa annua; parameters: key: 0 = normal development, 5 = all killed (6 ranks vs. untreated); conditions: foliar spray, 500 ppm, 3 weeks, glass house 25° C.
Summary of the method: as §6

common lambsquarters [25] = assay: Foliar spread test for upland field; assay type: in vivo, Chenopodium album; parameters: key: 0 = normal development, 5 = all killed (6 ranks vs. untreated); conditions: foliar spray, 500 ppm, 3 weeks, glass house 25° C.
Summary of the method: as §6

livid amaranth [26] = assay: Foliar spread test for upland field; assay type: in vivo, Amaranthus lividus; parameters: key: 0 = normal development, 5 = all killed (6 ranks vs. untreated); conditions: foliar spray, 500 ppm, 3 weeks, glass house 25° C.
Summary of the method: as §6

velvetleaf [27] = assay: Foliar spread test for upland field; assay type: in vivo, Abutilon theophrasti; parameters: key: 0 = normal development, 5 = all killed (6 ranks vs. untreated); conditions: foliar spray, 500 ppm, 3 weeks, glass house 25° C.
Summary of the method: as §6

morning glory [28] = assay: Foliar spread test for upland field; assay type: in vivo, Ipomoea spps.; parameters: key: 0 = normal development, 5 = all killed (6 ranks vs. untreated); conditions: foliar spray, 500 ppm, 3 weeks, glass house 25° C.
Summary of the method: as §6

CCC(=Cc1cccc(C(F)(F)F)c1)c1nc2cc(C(F)(F)F)ccc2o1 [I-c-86]
1: Effects Corn (corn [2]) | Effects Solgum (solgum [3])
4: Effects Bulrush (bulrush) | Effects Sotton (cotton) | Effects Sugar beat (sugar beat [19]) | Effects Large crabgrass (Large crabgrass [21]) | Effects Green foxtail (green foxtail [22]) | Effects Annual bluegrass (annual bluegrass [24])
2: Effects Solgum (solgum [17]) | Effects Wheat (wheat [20]) | Effects Barnyardgrass (barnyardgrjass)
0: Effects Soybean (soybean [4]) | Effects Wheat (wheat [6])
3: Effects Cyperus serotinus Rottb. (Cyperus serotinus Rottb.) | Effects Corn (corn [16]) | Effects Blackgrass (blackgrass [23]) | Effects Velvetleaf (velvetleaf [27])
5: Effects Barnyardgrass (barnyard grass [1]) | Effects Sugar beat (sugar beat [5]) | Effects Large crabgrass (Large crabgrass [7]) | Effects Barnyardgrass (barnyard grass [8]) | Effects Green foxtail (green foxtail [9]) | Effects Blackgrass (blackgrass [10]) | Effects Annual bluegrass (annual bluegrass [11]) | Effects Common lambsquarters (common lambsquarters [12]) | Effects Livid amaranth (livid amaranth [13]) | Effects Velvetleaf (velvetleaf [14]) | Effects Morning glory (morning glory [15]) | Effects Soybean (soybean [18]) | Effects Common lambsquarters (common lambsquarters [25]) | Effects Livid amaranth (livid amaranth [26]) | Effects Morning glory (morning glory [28])

CCC(=Cc1cccc(C(F)(F)F)c1)c1nc2cc(F)c(F)cc2o1 [I-c-111]
5: Effects Barnyardgrass (barnyard grass [1]) | Effects Soybean (soybean [4]) | Effects Sugar beat (sugar beat [5]) | Effects Wheat (wheat [6]) | Effects Large crabgrass (Large crabgrass [7]) | Effects Barnyardgrass (barnyard grass [8]) | Effects Green foxtail (green foxtail [9]) | Effects Blackgrass (blackgrass [10]) | Effects Annual bluegrass (annual bluegrass [11]) | Effects Common lambsquarters (common lambsquarters [12]) | Effects Livid amaranth (livid amaranth [13]) | Effects Velvetleaf (velvetleaf [14]) | Effects Soybean (soybean [18]) | Effects Common lambsquarters (common lambsquarters [25]) | Effects Livid amaranth (livid amaranth [26]) | Effects Morning glory (morning glory [28])
1: Effects Cyperus serotinus Rottb. (Cyperus serotinus Rottb.)
4: Effects Bulrush (bulrush) | Effects Morning glory (morning glory [15]) | Effects Sotton (cotton) | Effects Solgum (solgum [17]) | Effects Sugar beat (sugar beat [19]) | Effects Large crabgrass (Large crabgrass [21]) | Effects Green foxtail (green foxtail [22]) | Effects Blackgrass (blackgrass [23]) | Effects Annual bluegrass (annual bluegrass [24])
3: Effects Solgum (solgum [3]) | Effects Corn (corn [16]) | Effects Wheat (wheat [20]) | Effects Barnyardgrass (barnyardgrjass) | Effects Velvetleaf (velvetleaf [27])
2: Effects Corn (corn [2])
